Reference: patent US11207299B2, “Biphenyl sulfonamide compounds for the treatment of type IV collagen diseases” (Travere Therapeutics, Inc., priority 2018, dated 2021)
Values joined by “and” are separate entries in the source; they are usually repeats but may differ in a detail not shown here. Equal entries are not always repeated. “Also recorded” adds a separate entry of the source.

What was measured:
Type in all cases: in vivo, mouse
[1] = system: autosomal Alport mice (COL4A3^−/−); assay: Lifespan study in Alport mice
Excerpt: (§1) Vehicle or sparsentan was given daily by oral gavage to autosomal Alport mice (COL4A3^−/−) on the 129/Sv background (male and female) in five separate studies: a pilot study, an early intervention study (treated from 3-7 weeks of age), a late intervention study (treated from 5-7 weeks of age after the onset of glomerular (GM) changes), a lifespan study, and a hearing study (FIG. 1). The early intervention, late intervention, lifespan, and hearing studies also included mice treated with a comparator, losartan, which was given orally at 3-4 weeks of age in the early intervention study, in drinking water at 4-7 weeks of age in the early intervention study, and in drinking water at 5-7 weeks in the late intervention study.
In the lifespan study, Alport mice (n=10) were dosed using the same methodology as in the early intervention study, except that dosing was continued until mice had lost 10% of their peak body weight, after which they were euthanized.
For the pilot, early intervention, late intervention, and lifespan studies, spot urine was sampled pre-study and weekly during treatment and analyzed for protein (UP) and creatinine (C) to determine proteinuria (UP/C). At the end of each study the animals were euthanized, blood samples were taken, BUN was measured from serum, and kidneys were harvested for structural and immuno-fluorescent measurements. Glomerulosclerosis was assessed by immunofluorescence (IF) using an antibody to fibronectin (FN). Visual counting of the number of sclerotic glomeruli as a proportion of the total number of glomeruli per slide was used to calculate the percentage of sclerotic glomeruli. Sections were co-stained with an anti-CD45 antibody to indicate leucocyte infiltration. Tubulointerstitial fibrosis was determined by IF of kidney sections using an antibody to collagen 1 (COL1). Tubulointerstitial fibrosis (TIF) scoring was conducted by visual assessment of the COL1 positive area as a percentage of the total cortical area and was performed blinded. […]

[2] = system: autosomal Alport mice (COL4A3^−/−); assay: Late intervention study in Alport mice (treated from 5-7 weeks of age)
Excerpt: as §1
(§2) Efficacy renal endpoints included blood urea nitrogen (BUN), proteinuria (urine protein to creatinine ratio, or UP/C), glomerulosclerosis, tubulointerstitial fibrosis, leucocyte infiltration, and glomerular basement morphology (GBM) using transmission electron microscopy (TEM). Endpoints in the inner ear included auditory brain stem response (ABR) threshold as a measure of noise-induced hearing loss, strial capillary basement membrane thickness, and inner ear pathology by TEM.
In the late intervention study, wild-type or Alport mice (8 mice per group) were dosed for 14 days according to the same methods used in the early intervention study but beginning at 5 weeks of age, i.e., dosed with vehicle, 120 mg/kg of sparsentan, or 10 mg/kg losartan starting at 5 weeks of age for 14 days. In this study, untreated Alport mice at 5 weeks of age were also used as baseline controls.
For the pilot, early intervention, late intervention, and lifespan studies, spot urine was sampled pre-study and weekly during treatment and analyzed for protein (UP) and creatinine (C) to determine proteinuria (UP/C). At the end of each study the animals were euthanized, blood samples were taken, BUN was measured from serum, and kidneys were harvested for structural and immuno-fluorescent measurements. Glomerulosclerosis was assessed by immunofluorescence (IF) using an antibody to fibronectin (FN). Visual counting of the number of sclerotic glomeruli as a proportion of the total number of glomeruli per slide was used to calculate the percentage of sclerotic glomeruli. Sections were co-stained with an anti-CD45 antibody to indicate leucocyte infiltration. Tubulointerstitial fibrosis was determined by IF of kidney sections using an antibody to collagen 1 (COL1). Tubulointerstitial fibrosis (TIF) scoring was conducted by visual assessment of the COL1 positive area as a percentage of the total cortical area and was performed blinded. The fibrosis scoring (“Fibrosis Score”) was categorized according to visual judgment of percentage of total cortical area, as: 0=<5%, 1=5-10%, 2=10-25%, 3=25-50%, 4=50-75%, or 5=75-100%. Ultrastructural changes in GBM and podocyte morphology were observed using transmission electron microscopy (TEM).
For a baseline comparison for late intervention, glomerulosclerosis and fibrosis were determined in kidney samples taken from 5-week-old untreated Alport mice.

[3] = system: autosomal Alport mice (COL4A3^−/−); assay: Hearing study in Alport mice (ABR, noise exposure, strial capillary basement membrane TEM)
Excerpt: as §1, §2
For the hearing study, wild-type or Alport mice were treated according to daily from 3-8.5 weeks of age by oral gavage with vehicle (0.5% methylcellulose 4000 cps/0.25% Tween® 80 in distilled water) or 120 mg/kg sparsentan or losartan at 20 mg/kg by oral gavage from 3-4 weeks of age (during weaning) and 10 mg/kg in drinking water from 4-7 weeks of age (n=5). The progression of Alport disease was assessed at 7 weeks of age by the amount of proteinuria (via urinalysis reagent strips—data not shown). Strial capillary basement membrane (SCBM) width was analyzed by transmission electron microscopy (TEM), and accumulation of extracellular matrix (ECM) in SCBM was determined by immunofluorescence (IF) microscopy using an antibody to laminin α2. Hearing ability and sensitivity to noise were assessed between 7 and 8 weeks of age by Auditory Brainstem Response (ABR), pre-noise exposure. A subset of each treatment group was then exposed to a metabolic noise stress for 10 hours. Mice receiving the noise treatment were randomly selected for overstimulation with a 106 dB sound pressure level (SPL), narrow band noise (8-16 kHz) for 10 hours, usually 10 PM to 8 AM. The noise exposure was conducted in a sound-isolation booth. A speaker was suspended from the ceiling. Wire cages with individual compartments were located midway between the floor and speaker. Mice were hydrated prior to placement in the cage and were provided free access to food. The noise exposure occurred at 8 weeks of age. The amount of hearing loss caused by the metabolic noise exposure was determined 5 days post-exposure.

[4] = Alport mice late intervention, sparsentan 120 mg/kg, mean ± SD

CCCCC1=NC2(CCCC2)C(=O)N1Cc1ccc(-c2ccccc2S(=O)(=O)Nc2noc(C)c2C)c(COCC)c1 [sparsentan]
Lifespan compared to vehicle-treated Alport mice ([1]; dosing as in early intervention study, continued until 10% loss of peak body weight, P<0.05): significantly longer; also recorded: significantly greater | Median lifespan ([1]; sparsentan compared with losartan): the same as losartan | UP/C ([2]; Alport mice late intervention, sparsentan 120 mg/kg for 14 days from 5 wk of age, mean ± SD, n = 8): 16.8 ± 2.8 mg/mg | BUN [2, 4]: 16.2 ± 2.4 mg/dL | GS (% Sclerotic glomeruli) [2, 4]: 8.3 ± 9.2 % | TIF ([2]; Alport mice late intervention, sparsentan 120 mg/kg, tubulointerstitial fibrosis score, mean ± SD): 0.8 ± 0.7 | Nephroprotection in AP mice ([2]; late intervention, to a greater extent than in the losartan-treated group): significant nephroprotection | Development of fibrosis, CD45^+ leucocyte infiltration, and glomerulosclerosis ([2]; sparsentan 120 mg/kg or losartan 10 mg/kg, 5-7 weeks of age): prevented; also recorded: attenuated | UP/C, BUN, glomerulosclerosis, and fibrosis vs. vehicle-treated Alport mice ([2]; sparsentan 120 mg/kg, late intervention, P<0.05): significantly lower | Hearing ability before noise exposure (ABR) ([3]; 7-8-week-old mice, sparsentan 120 mg/kg or losartan 20/10 mg/kg): did not differ significantly | Post-noise hearing loss (ABR threshold post-noise minus pre-noise) vs vehicle-treated Alport mice ([3]; 16 kHz, 5 days after 10 h noise, sparsentan 120 mg/kg, P<0.05): prevented; also recorded: significantly reduced | Increase in strial capillary basement membrane width observed in vehicle-treated Alport mice ([3]; Alport mice treated 3-8.5 weeks of age with sparsentan or losartan): prevented | mean SCBM width±SD ([3]; Alport mice, sparsentan 120 mg/kg from 3-8.5 weeks of age, TEM, n=5): 54.7±2.4 nm | Strial capillary basement membrane thickness, single measurements (FIG. 16) ([3]; capillary from a stria of a sparsentan-treated Alport mouse, TEM): 52.45 nm and 58.09 nm and 80.38 nm | Stria vascularis pathology by TEM ([3]; treated Alport mice, FIGS. 14-23): substantially fewer extra- and intra-cytosolic vacuoles
